Values joined by “and” are separate entries in the source; they are usually repeats but may differ in a detail not shown here. Equal entries are not always repeated. Where two headings read alike, the source gives them in different places.
Tests used:
[1] = for Free conc. (FCC; free plasma concentration): calculated from CC and plasma protein binding
[2] = cited from earlier work; for Clinical conc. (CC; total/maximal plasma concentration): human plasma, literature data mining, ref per-compound studies in Fig. S4; for Plasma concentration range / Plasma concentration, average: ref Laske et al. (2009)
[3] = system: HEK293 cells
[4] = system: migration of hESC-derived neural crest cells (NCC); assay: MINC assay (migration inhibition of neural crest cells, UKN2); details: 48 h, in a non-cytotoxic concentration range
[5] = system: mESC-derived neural stem cells (mESCn)
[6] = system: plasma proteins; details: cited from earlier work
[7] = system: hESC-derived neural crest cells (NCC)
[8] = system: embryonic stem cell differentiation; design: method as in de Jong et al. 2009; details: ref de Jong et al. 2009; cited from earlier work
[9] = head of Fig. S4 entry; compiled from in vivo/in vitro studies and simulations
[10] = system: whole embryo culture; design: method as in Piersma et al. (2008); details: ref Piersma et al. (2008); cited from earlier work
[11] = cited from earlier work; for Geometric mean concentration in maternal serum: ref Eskenazi et al. (2013); for Average concentration in breast milk: ref Gascon et al. (2012)
[12] = system: rats; details: single oral dose to dams on gestational day 6, Wistar rat; ref Kuriyama et al. (2005); cited from earlier work
[13] = system: fetal growth; design: method as in Govarts et al. (2012); details: per 1 µg/l increase in cord serum PCB-153; ref Govarts et al. (2012); cited from earlier work
[14] = system: rats; details: single dose, oral gavage, adult male Long-Evans rats; ref Crofton et al. (2011); cited from earlier work
[15] = system: zebrafish embryos; design: method as in Hermsen et al. (2012); details: pericardial edema, malformations of head and heart; ref Hermsen et al. (2012); cited from earlier work
[16] = system: rat fetuses; design: method as in Machera 1995; details: cleft palate and hydrocephaly as most common malformations; ref Machera 1995; cited from earlier work
[17] = system: rat whole embryo culture; design: method as in Robinson et al. (2012); details: 48 hours, ref Robinson et al. (2012), cited from earlier work
[18] = system: dopaminergic PC12 cells; design: method as in Heusinkveld et al. (2013); details: ref Heusinkveld et al. (2013); cited from earlier work
[19] = system: neural embryonic stem cell test (ESTn); design: method as in Theunissen et al. (2012); details: ref Theunissen et al. (2012); cited from earlier work
[20] = 50 patients with Alzheimer's disease

## CCC[C@H](NC(=O)[C@@H]1[C@H]2CCC[C@H]2CN1C(=O)[C@@H](NC(=O)[C@@H](NC(=O)c1cnccn1)C1CCCCC1)C(C)(C)C)C(=O)C(=O)NC1CC1 [Telaprevir]
[1]
  Free conc. (FCC; free plasma concentration): 1600 nM
[2]
  Clinical conc. (CC; total/maximal plasma concentration): 5100 nM

## C[C@]12CC[C@H](O)CC1=CC[C@@H]1[C@@H]2CC[C@]2(C)C(c3cccnc3)=CC[C@@H]12 [Abiraterone]
[3]; human
  Highest non-cytotoxic conc. in HEK293: 2.0 µM
[1]
  Free conc. (FCC; free plasma concentration): 7.8 nM
[4]
  Effect on NCC migration in concentration-response study: concentration-dependent effect
[5]; mouse
  Highest non-cytotoxic conc. in mESCn: 0.97 µM
[6]; ref Gurav et al. (2012)
  Bound to plasma proteins: > 98.8%
[7]; human
  Concentration for hit finding in NCC (highest non-cytotoxic concentration in the UKN2 test system): 2000 nM
[2]
  Clinical conc. (CC; total/maximal plasma concentration): 647.3 nM

## COCC(=O)O [Methoxyacetic acid]
[8]
  BMC50: 2.4 mM
[9]
  DT concentration: 7.5 mM
[10]
  BMC5: 1.6 mM
[11]; due to permitted occupational EGME exposure, ref Welsch 2005
  Estimated human blood concentration: approximately 60 μM
[11]; head of Fig. S4 entry, ref studies in Fig. S4
  Human exposure concentration: 60 µM

## Brc1ccc(Oc2cc(Br)c(Br)cc2Br)c(Br)c1 [PBDE-99, 2,2′,4,4′,5-pentabromodiphenyl ether]
[4]
  Effect on NCC migration in concentration-response study: concentration-dependent effect
[12]
  Dose causing hyperactivity and impaired spermatogenesis in offspring: 0.11 µmol/kg
[11]; converted
  Geometric mean concentration in maternal serum: 25 ng/l and 44 pM
  Average concentration in breast milk: 1 ng/l and 1.8 pM
[11]
  Geometric mean concentration in maternal serum: 4.5 ng/g
  Average concentration in breast milk: 0.27 ng/g lw

## COCCCOc1cc(C[C@@H](C[C@H](N)[C@@H](O)C[C@H](C(=O)NCC(C)(C)C(N)=O)C(C)C)C(C)C)ccc1OC [Aliskiren]
[1]
  Free conc. (FCC; free plasma concentration): 166 nM
[6]; moderate, ref Vaidyanathan et al. 2008
  Protein binding: 47-51%
[2]
  Clinical conc. (CC; total/maximal plasma concentration): 326.5 nM

## O=C(NC[C@H]1CN(c2ccc(N3CCOCC3=O)cc2)C(=O)O1)c1ccc(Cl)s1 [Rivaroxaban]
[1]
  Free conc. (FCC; free plasma concentration): 41.4 nM
[6]; PBPK model study, ref Grillo et al. (2012)
  Unbound fraction in plasma: 6%
[2]
  Clinical conc. (CC; total/maximal plasma concentration): 689.6 nM

## O=C(Nc1c(Cl)cncc1Cl)c1ccc(OC(F)F)c(OCC2CC2)c1 [Roflumilast]
[1]
  Free conc. (FCC; free plasma concentration): 0.2 nM
[2]
  Clinical conc. (CC; total/maximal plasma concentration): 18.0 nM

## CC[C@H](C)[C@@H]1NC(=O)[C@H](Cc2ccc(O)cc2)NC(=O)[C@@H](N)CSSC[C@@H](C(=O)N2CCC[C@H]2C(=O)N[C@@H](CC(C)C)C(=O)NCC(N)=O)NC(=O)[C@H](CC(N)=O)NC(=O)[C@H](CCC(N)=O)NC1=O [Oxytocin]
[3]; 48 h
  Highest non-cytotoxic conc. in HEK293: > 0.1 µM
[1]
  Free conc. (FCC; free plasma concentration): 2.0 nM
[5]; 48 h
  Highest non-cytotoxic conc. in mESCn: > 100.0 µM
[6]; ref Fabian et al. (1969)
  Binding state in plasma: unbound
[7]; 48 h
  Concentration for hit finding in NCC (highest non-cytotoxic concentration in the UKN2 test system): 100 nM
[2]
  Clinical conc. (CC; total/maximal plasma concentration): 2.0 nM

## Nc1ccc(S(=O)(=O)Nc2ncccn2)cc1 [Sulfadiazine]
[3]; human
  Highest non-cytotoxic conc. in HEK293: 100.0 µM
[5]; mouse
  Highest non-cytotoxic conc. in mESCn: > 50.0 µM
[6]; human
  Degree of protein binding: 50%
[7]; human
  Concentration for hit finding in NCC (highest non-cytotoxic concentration in the UKN2 test system): 50000 nM
[2]; human, in vivo
  Clinical concentration range (average Cmax): 50-110
  Cmax: 200000 to 440000 nM

## CN(C)CCCN1c2ccccc2Sc2ccc(Cl)cc21 [Chlorpromazine]
[6]; plasma
  Bound to plasma protein albumin: around 85%

## Neuregulin
[2]
  Clinical conc. (CC; total/maximal plasma concentration): 6300 nM

## Clc1cc(Cl)c(-c2cc(Cl)c(Cl)cc2Cl)cc1Cl [PCB-153]
[9]
  DT concentration: 3.88e-07 mM
[4]
  Effect on NCC migration in concentration-response study: concentration-dependent effect
[11]; cohort of 7990 women, ref Govarts et al. (2012)
  Median cord serum concentration: 140 ng/l and 388 pM
[11]; ref Covaci et al. (2002)
  Maternal serum concentration: 670 ± 350 pg/mL
[13]
  Reduction of birth weight: 150 g

## Erythropoietin
[2]
  Clinical conc. (CC; total/maximal plasma concentration): 0.3 nM

## Cc1ccc(NC(=O)c2ccc(CN3CCN(C)CC3)cc2)cc1Nc1nccc(-c2cccnc2)n1 [Imatinib]
[4]
  Effect on NCC migration in concentration-response study: concentration-dependent effect
[7]; human
  Concentration for hit finding in NCC (highest non-cytotoxic concentration in the UKN2 test system): 5000 nM

## CCCc1nn(C)c2c(=O)[nH]c(-c3cc(S(=O)(=O)N4CCN(C)CC4)ccc3OCC)nc12 [Sildenafil]
[1]
  Free conc. (FCC; free plasma concentration): 11.0 nM
[6]; ref Purvis et al. (2002)
  Plasma protein binding: approximately 95%

## COC1=C2C[C@@H](C)C[C@H](OC)[C@H](O)[C@@H](C)/C=C(\C)[C@H](OC(N)=O)[C@@H](OC)/C=C\C=C(/C)C(=O)NC(=CC1=O)C2=O [Geldanamycin]
[4]
  Effect on NCC migration in concentration-response study: concentration-dependent effect
[2]
  Clinical conc. (CC; total/maximal plasma concentration): 800 nM

## CC(C)(C)C(O)C(Oc1ccc(Cl)cc1)n1cncn1 (stereo not drawn) [triadimenol]
[14]
  Dose causing transient CNS toxicity (hyperactivity, stereotyped behavior): 50 mg/kg

## C/C(O)=C(\C#N)C(=O)Nc1ccc(C(F)(F)F)cc1 [Teriflunomide]
[1]
  Free conc. (FCC; free plasma concentration): 54.0 nM
[6]; almost constant, ref not given
  Portion of free teriflunomide: 0.5%
[6]; primarily to albumin, no unit and ref not given
  Bound to plasma proteins: > 99.3
[2]
  Clinical conc. (CC; total/maximal plasma concentration): 10800 nM

## COC(=O)c1ccc2c(c1)NC(=O)/C2=C(\Nc1ccc(N(C)C(=O)CN2CCN(C)CC2)cc1)c1ccccc1 [Nintedanib/ BIBF 1120, Nintedanib]
[1]
  Free conc. (FCC; free plasma concentration): 70.8 nM
[2]
  Clinical conc. (CC; total/maximal plasma concentration): 74.2 nM

## N[C@@H](CC(=O)N1CCn2c(nnc2C(F)(F)F)C1)Cc1cc(F)c(F)cc1F [Sitagliptin]
[1]
  Free conc. (FCC; free plasma concentration): 1200 nM
[6]; ref Herman et al. (2006a)
  Binding to plasma proteins: 38%
[2]
  Clinical conc. (CC; total/maximal plasma concentration): 1900 nM

## CC(C1CC1)C(O)(Cn1cncn1)c1ccc(Cl)cc1 (stereo not drawn) [Cyproconazole]
[15]
  Concentration increasing teratogenic effects: 65000 nM
[9]
  DT concentration: 0.065 to 0.118 mM
[4]
  Effect on NCC migration in concentration-response study: concentration-dependent effect
[16]
  Suggested NOEL: 20 mg/kg
[17]; 1 mM
  Malformations: 50%
[17]; 1.7 mM
  Malformations: 100%
[18]
  Inhibitory concentration on depolarization-evoked intracellular calcium concentration: 65 µM
[19]
  Concentration reducing cell viability to 80%: 117600 nM

B1: granulocyte colony-stimulating factor (protein, UniProt P09919 31-207, looked up)
Granulocyte …: TPLGPASSLPQSFLLKCLEQVRKIQGDGAALQEKLVSECATYKLCHPEELVLLGHSLGIPWAPLSSCPSQALQLAGCLSQLHSGLFLYQGLLQALEGISPELGPTLDTLQLDVADFATTIWQQMEELGMAPALQPTQGAMPAFASAFQRRAGGVLVASHLQSFLEVSYRVLRHLAQP
[1]; calculated from Laske et al. (2009) data
  Clinically relevant concentration: 25 pg/mL
[2]; 50 healthy controls
  Plasma concentration range: 5 to 80 pg/mL
  Plasma concentration, average: ~ 28 pg/ml
[2]; [20]
  Plasma concentration range: 10 to 40 pg/mL
  Plasma concentration, average: ~ 20 pg/ml
[2]
  Clinical conc. (CC; total/maximal plasma concentration): 0.0013 nM

From PMC3996367, “Profiling of drugs and environmental chemicals for functional impairment of neural crest migration in a novel stem cell-based test battery” (Archives of Toxicology, 2014)
